Reference: ChEMBL document CHEMBL1126336, “Benzopyranyl-cyanoguanidine potassium channel openers” (Bioorg Med Chem Lett, 1992)

Tests used:
Format in all cases: functional
[1] = species: Rattus norvegicus; assay: Vasorelaxant potency required to relax methoxamine contracted male Wistar Kyoto rat thoracic aorta
[2] = test system: Rattus norvegicus; assay: Antihypertensive activity expressed as percent maximum decrease in blood pressure at 45 umol/kg for 0-6 hrs in male spontaneously hypertensive rats when administered perorally
[3] = test system: Rattus norvegicus; assay: Antihypertensive activity expressed as percent maximum decrease in blood pressure at 45 umol/kg for 12-18 hrs in male spontaneously hypertensive rats when administered perorally
[4] = test system: Rattus norvegicus; assay: Antihypertensive activity expressed as percent maximum decrease in blood pressure at 45 umol/kg for 18-24 hrs in male spontaneously hypertensive rats when administered perorally
[5] = test system: Rattus norvegicus; assay: Antihypertensive activity expressed as percent maximum decrease in blood pressure at 45 umol/kg for 6-12 hrs in male spontaneously hypertensive rats when administered perorally

| SMILES | IC50 [1] | other results |
| --- | --- | --- |
| CC1(C)Oc2ccc(C#N)cc2[C@@H](/N=C(/N)NC#N)[C@@H]1O | 320 nM | – |
| CC1(C)Oc2ccc(C#N)cc2[C@@H](/N=C(\NC#N)N2CCN(Cc3ccccc3)CC2)[C@@H]1O | 13100 nM | – |
| CC1(C)Oc2ccc(C#N)cc2[C@@H](N2CCCN=C2NC#N)[C@@H]1O | 120 nM | – |
| CC1(C)Oc2ccc(C#N)cc2[C@@H](N2CCCC2=O)[C@@H]1O [CROMAKALIM] | – | Max decrease [2]: 63%; Max decrease [3]: 37%; Max decrease [4]: 42%; Max decrease [5]: 35% |
| COCC/N=C(/NC#N)N[C@@H]1c2cc(C#N)ccc2OC(C)(C)[C@H]1O | 1690 nM | – |
| CCC(C)(C)/N=C(\NC#N)N[C@@H]1c2cc(C#N)ccc2OC(C)(C)[C@H]1O | 29800 nM | – |
| CC1(C)Oc2ccc(C#N)cc2[C@@H](/N=C(\NC#N)N2CCCC2)[C@@H]1O | 34 nM | – |
| CC1(C)Oc2ccc(C#N)cc2[C@@H](N2CCN=C2NC#N)[C@@H]1O | 470 nM | – |
| CC/N=C(/NC#N)N[C@@H]1c2cc(C#N)ccc2OC(C)(C)[C@H]1O | 380 nM | – |
| CN(C)/C(=N/[C@@H]1c2cc(C#N)ccc2OC(C)(C)[C@H]1O)NC#N | 490 nM | – |
| CC(N/C(=N\C#N)Nc1ccncc1)C(C)(C)C (centres undefined) [PINACIDIL ANHYDROUS] | – | Max decrease [2]: 40%; Max decrease [3]: 23%; Max decrease [4]: 14%; Max decrease [5]: 21% |
| CC(C)/N=C(/NC#N)N[C@@H]1c2cc(C#N)ccc2OC(C)(C)[C@H]1O | 660 nM | – |
| C/N=C(\NC#N)N[C@@H]1c2cc(C#N)ccc2OC(C)(C)[C@H]1O | 200 nM | Max decrease [2]: 46%; Max decrease [3]: 23%; Max decrease [4]: 15%; Max decrease [5]: 44% |
| CN(C)CC/N=C(/NC#N)N[C@@H]1c2cc(C#N)ccc2OC(C)(C)[C@H]1O | > 100000 nM | – |
